Data from patent US20090143279A1 (priority 2007, published 2009).
Read-outs that look alike come from different tables or passages of the source.

Columns and labels:
C2C12 myotubes = conditions: for Viability (composite Z-score): normalized score vs mock-treated (DMSO) wells
cytochrome c = type: cell-based, mouse; conditions: for cyt c (composite Z-score): normalized score vs mock-treated (DMSO) wells
reactive oxygen species = type: cell-based, mouse; conditions: for ROS (composite Z-score): normalized score vs mock-treated (DMSO) wells
nuOXPHOS transcripts = type: cell-based, mouse; conditions: for nucOX (composite Z-score): normalized score vs mock-treated (DMSO) wells
mtOXPHOS transcripts = type: cell-based, mouse; conditions: for mitoOX (composite Z-score): normalized score vs mock-treated (DMSO) wells
OXPHOS gene expression = type: cell-based, mouse; conditions: for GE-HTS (composite Z-score): normalized score vs mock-treated (DMSO) wells
[1] = test system: cellular dehydrogenase activity; conditions: for MTT (composite Z-score): normalized score vs mock-treated (DMSO) wells
[2] = test system: mitochondrial membrane potential; type: cell-based, mouse; conditions: for ΔΨm (composite Z-score): normalized score vs mock-treated (DMSO) wells
[3] = 20 μM, composite Z-score vs DMSO
[4] = composite Z-score vs DMSO, Conc 20 μM
[5] = composite Z-score vs mock-treated (DMSO) wells, Conc 20 μM
[6] = Table 4, C2C12 myotubes, 48 h, composite Z-score
[7] = Table 4, C2C12 myotubes, 48 h, JC-1, composite Z-score
[8] = composite Z-score vs DMSO wells, Conc 20 μM
[9] = normalized composite Z-score vs mock-treated (DMSO) wells, Conc 20 μM
[10] = composite Z-score vs mock-treated (DMSO) wells, concentration of each compound in μM

Structure (SMILES): COc1ccc([C@@H]2CC(=O)c3c(O)cc(O[C@@H]4O[C@H](CO[C@@H]5O[C@@H](C)[C@H](O)[C@@H](O)[C@H]5O)[C@@H](O)[C@H](O)[C@H]4O)cc3O2)cc1O [hesperidin]
- Viability (C2C12 myotubes; [3]): 0.694
- cyt c (cytochrome c; [3]): 0.621
- ROS (reactive oxygen species; [3]): −0.281
- nucOX (nuOXPHOS transcripts; [3]): −0.106
- mitoOX (mtOXPHOS transcripts; [3]): −1.561
- GE-HTS (OXPHOS gene expression; [3]): −0.618
- MTT [1, 3]: −0.992
- ΔΨm [2, 3]: −0.251

Structure (SMILES): CC1(C)S[C@@H]2[C@H](N3C(=O)[C@@H](c4ccccc4)NC3(C)C)C(=O)N2[C@H]1C(=O)O [hetacillin]
- Viability (C2C12 myotubes; [4]): −0.642
- cyt c (cytochrome c; [4]): 0.731
- ROS (reactive oxygen species; [4]): 1.132
- nucOX (nuOXPHOS transcripts; [4]): −0.094
- mitoOX (mtOXPHOS transcripts; [4]): −0.302
- GE-HTS (OXPHOS gene expression; [4]): −0.200
- MTT [1, 4]: −0.663
- ΔΨm [2, 4]: −0.787

Structure (SMILES): COc1cc(O)c2c(=O)cc(C)oc2c1CC=C(C)C [heteropeucenin, methyl ether]
- Viability (C2C12 myotubes; [5]): −0.034
- cyt c (cytochrome c; [5]): 0.416
- ROS (reactive oxygen species; [5]): 0.256
- nucOX (nuOXPHOS transcripts; [5]): 0.328
- mitoOX (mtOXPHOS transcripts; [5]): 0.217
- GE-HTS (OXPHOS gene expression; [5]): 0.299
- MTT [1, 5]: −1.476
- ΔΨm [2, 5]: 0.886

Structure (SMILES): CCC(C)C(OC(C)=O)C(=O)O[C@H]1[C@H](O)[C@@H]2[C@@]3(C)C=CC(=O)C(C)(C)[C@@H]3C[C@@H](OC(=O)C(O)C(C)C)[C@@]2(C)[C@@]23O[C@@H]2C[C@@H](c2ccoc2)[C@]13C (stereo partly drawn) [heudelottin C, reference compound]
- Viability (composite Z-score) (C2C12 myotubes; Conc 20 μM): −0.829
- Viability (C2C12 myotubes; [6]): −0.829
- cyt c (composite Z-score) (cytochrome c; Conc 20 μM): 0.156
- ROS (composite Z-score) (reactive oxygen species; Conc 20 μM): 0.576
- ROS (reactive oxygen species; [6]): 0.576
- nucOX (composite Z-score) (nuOXPHOS transcripts; Conc 20 μM): −0.245
- mitoOX (composite Z-score) (mtOXPHOS transcripts; Conc 20 μM): −1.006
- GE-HTS (composite Z-score) (OXPHOS gene expression; Conc 20 μM): −0.524
- MTT (composite Z-score) ([1]; Conc 20 μM): −0.393
- MTT [1, 6]: −0.393
- ΔΨm (composite Z-score) ([2]; Conc 20 μM): 0.373
- ΔΨm [2, 7]: 0.373

Structure (SMILES): Oc1c(Cl)cc(Cl)c(Cl)c1Cc1c(O)c(Cl)cc(Cl)c1Cl [hexachlorophene]
- Viability (C2C12 myotubes; [8]): −3.480
- cyt c (cytochrome c; [8]): −2.828
- ROS (reactive oxygen species; [8]): −3.378
- nucOX (nuOXPHOS transcripts; [8]): −1.371
- mitoOX (mtOXPHOS transcripts; [8]): −4.169
- GE-HTS (OXPHOS gene expression; [8]): −2.471
- MTT [1, 8]: −1.203
- ΔΨm [2, 8]: −2.559

Structure (SMILES): C[N+](C)(C)CCCCCC[N+](C)(C)C [hexamethonium bromide]
- Viability (C2C12 myotubes; [8]): −0.378
- cyt c (cytochrome c): −0.284
- cyt c (cytochrome c; [8]): 0.087
- ROS (reactive oxygen species; [8]): 0.176
- nucOX (nuOXPHOS transcripts; [8]): −0.806
- mitoOX (mtOXPHOS transcripts; [8]): −0.442
- GE-HTS (OXPHOS gene expression; [8]): −0.735
- MTT [1, 8]: −1.179
- ΔΨm [2, 8]: −0.602

Structure (SMILES): O=c1cc(-c2cc(O)c(O)c(O)c2)oc2cc(O)cc(O)c12 [hieracin, reference compound]
- Viability (composite Z-score) (C2C12 myotubes; Conc 20 μM): 1.425
- Viability (C2C12 myotubes; [6]): 1.425
- cyt c (composite Z-score) (cytochrome c; Conc 20 μM): 0.057
- ROS (composite Z-score) (reactive oxygen species; Conc 20 μM): −0.329
- ROS (reactive oxygen species; [6]): −0.329
- nucOX (composite Z-score) (nuOXPHOS transcripts; Conc 20 μM): −0.421
- mitoOX (composite Z-score) (mtOXPHOS transcripts; Conc 20 μM): −1.009
- GE-HTS (composite Z-score) (OXPHOS gene expression; Conc 20 μM): −0.648
- MTT (composite Z-score) ([1]; Conc 20 μM): −0.557
- MTT [1, 6]: −0.557
- ΔΨm (composite Z-score) ([2]; Conc 20 μM): −1.902
- ΔΨm [2, 7]: −1.902

Structure (SMILES): COc1ccc2c(c1)O[C@H]1c3ccc(OC)cc3OC[C@@H]21 [homopterocarpin]
- Viability (C2C12 myotubes; [9]): 0.549
- cyt c (cytochrome c; [9]): 0.575
- ROS (reactive oxygen species; [9]): −0.616
- nucOX (nuOXPHOS transcripts; [9]): −0.713
- mitoOX (mtOXPHOS transcripts; [9]): −1.126
- GE-HTS (OXPHOS gene expression; [9]): −0.918
- MTT [1, 9]: −0.578
- ΔΨm [2, 9]: −0.306

Structure (SMILES): C/C1=C\CC/C(C)=C/CC(C)(C)/C=C/C1 [humulene]
- Viability (C2C12 myotubes; [9]): −0.070
- cyt c (cytochrome c; [9]): −0.100
- ROS (reactive oxygen species; [9]): 0.679
- nucOX (nuOXPHOS transcripts; [9]): −0.188
- mitoOX (mtOXPHOS transcripts; [9]): 0.060
- GE-HTS (OXPHOS gene expression; [9]): −0.096
- MTT [1, 9]: −1.208
- ΔΨm [2, 9]: −0.232

Structure (SMILES): CCCC(=O)O[C@]1(C(=O)CO)CC[C@H]2[C@@H]3CCC4=CC(=O)CC[C@]4(C)[C@H]3[C@@H](O)C[C@@]21C [hydrocortisone butyrate]
- Viability (C2C12 myotubes; [3]): −1.654
- cyt c (cytochrome c; [3]): −0.064
- ROS (reactive oxygen species; [3]): 1.234
- nucOX (nuOXPHOS transcripts; [3]): 0.514
- mitoOX (mtOXPHOS transcripts; [3]): 0.916
- GE-HTS (OXPHOS gene expression; [3]): 0.666
- MTT [1, 3]: −0.932
- ΔΨm [2, 3]: −0.808

Structure (SMILES): C[C@@H]1CC[C@@]2(OC1)O[C@H]1C[C@H]3[C@@H]4CC[C@H]5C[C@@H](O)CC[C@]5(C)C4=CC[C@]3(C)[C@H]1[C@@H]2C [hydroxy (3beta)isoallospirost-9 (11)-ene]
- Viability (C2C12 myotubes; [9]): 0.035
- cyt c (cytochrome c; [9]): −0.048
- ROS (reactive oxygen species; [9]): 0.244
- nucOX (nuOXPHOS transcripts; [9]): −0.619
- mitoOX (mtOXPHOS transcripts; [9]): −0.081
- GE-HTS (OXPHOS gene expression; [9]): −0.457
- MTT [1, 9]: −1.944
- ΔΨm [2, 9]: −0.423

Structure (SMILES): CN[C@H]1C[C@@H](N)[C@H](O)[C@@H](O[C@@H]2O[C@H](CO)[C@H](O)[C@@H]3OC4(O[C@H]23)O[C@H]([C@@H](N)CO)[C@H](O)[C@H](O)[C@H]4O)[C@@H]1O (stereo partly drawn) [hygromycin B]
- Viability (C2C12 myotubes; [10]): −1.526
- cyt c (cytochrome c; [10]): −0.478
- ROS (reactive oxygen species; [10]): 0.707
- nucOX (nuOXPHOS transcripts; [10]): 0.800
- mitoOX (mtOXPHOS transcripts; [10]): −0.054
- GE-HTS (OXPHOS gene expression; [10]): 0.558
- MTT [1, 10]: −2.041
- ΔΨm [2, 10]: −0.752
